Test results taken from publication PMC5430962, “Retro-inverso Urokinase Receptor Antagonists for the Treatment of Metastatic Sarcomas” (Scientific Reports, 2017).
[ ]: non-standard residue; d: D form. Aib = CC(C)(N)C(=O)O

Columns and labels:
[1] = Stability in human serum, read out as retained inhibition of HT1080 matrigel invasion; format: in vitro ADME; details: pre-incubated at 10^−3 M in human serum 18 hr at 37 °C; tested at 10 nM on HT1080 matrigel invasion, Boyden chambers, 6 hr; three experiments in triplicate
Experimental: A major limitation of peptides for use as therapeutics is susceptibility to degradation by serum proteases. The stability of RI-3 in bovine and human serum was investigated by comparing inhibitory activities of RI-3 and RI-3 pre-incubated at 10^−3 M with serum for 18 hr at 37 °C on cell migration and invasion. HT1080 cells were allowed to migrate for 18 hr toward DMEM (CTRL), 10% FBS (None), 10% FBS plus 10 nM RI-3 or 10% FBS with 10 nM RI-3 pre-incubated in bovine serum. […] The stability of RI-3 in human serum was investigated in cell invasion experiments performed in Boyden chambers. […]
(a) HT1080 cells were allowed to migrate in real time for 18 hr toward DMEM (CTRL), or 10% FBS in the absence (None) or the presence of 10 nM RI-3 or 10 nM RI-3 pre-incubated at 10^−3 M in bovine serum for 18 hr at 37 °C. […] The basal value assessed in the absence of FBS (CTRL) was taken as 100% and all values were reported relative to that. Data are the means ± SD three independent experiments, performed in triplicate. *Indicates statistical significance calculated against None, with *P < 0.05, **P < 0.0001. (c) Cell proliferation of HT1080 cells assessed by MTS assay. […] At the indicated times, the absorbance of adherent cells was assessed with a microplate reader. […]

[2] = tested on: Fgr(Y412); assay: Phospho-kinase array, RBL-2H3/ETFR cells; format: cell-based, rat; details: 10 nM fMLF plus 10 nM peptide, 10 min
Experimental: (§1) RBL-2H3/ETFR grown to semi-confluence, were exposed to DMEM alone, 10 nM fMLF with/without 10 nM RI-3 at 37 °C in humidified air with 5% CO2. At the indicated times, cells were lysed in RIPA buffer and cell lysate protein content was measured by a colorimetric assay. Western blot analysis of AKT phosphorylation was performed as previously described using anti-phospho-Akt (Ser473) (pAKT) Ab (Cell Signaling) and anti-Akt mAb (R&D System). The effects of fMLF with/without 10 nM RI-3 were analyzed at the level of global kinase phosphorylation, using the dot-blot Proteome Profiler^TM Array Human PhosphoKinase Array Kit (R&D Systems), according to manufacturer’s instructions. Briefly, 300 µg of protein were applied on each membrane and the signals were detected as described for Western blot. The pixel density of each spot was measured using NIH Image 1.62 software. The intensity of positive control spots was used to normalize results between the four membranes. The intensity for each spot was then averaged over the duplicate spots.

[3] = tested on: Akt(S473); assay: Phospho-kinase array, RBL-2H3/ETFR cells; format: cell-based, rat; details: 10 nM fMLF plus 10 nM peptide, 10 min
Experimental: as §1

[4] = tested on: p38α(T180/Y182); assay: Phospho-kinase array, RBL-2H3/ETFR cells; format: cell-based, rat; details: 10 nM fMLF plus 10 nM peptide, 10 min
Experimental: as §1

[5] = tested on: ERK1/2(T202/Y204/T185/Y187); assay: Phospho-kinase array, RBL-2H3/ETFR cells; format: cell-based, rat; details: 10 nM fMLF plus 10 nM peptide, 10 min
Experimental: as §1

[6] = tested on: FAK(Y397); assay: Phospho-kinase array, RBL-2H3/ETFR cells; format: cell-based, rat; details: 10 nM fMLF plus 10 nM peptide, 10 min
Experimental: as §1

[7] = tested on: CREB(S133); assay: Phospho-kinase array, RBL-2H3/ETFR cells; format: cell-based, rat; details: 10 nM fMLF plus 10 nM peptide, 10 min
Experimental: as §1

[8] = tested on: HT1080 cells; assay: HT1080 cell migration toward 10% FBS in Boyden chambers; format: cell-based, human; details: 10 nM peptide plus 10% FBS, 4 hr, means of three independent experiments in triplicate
Experimental: Cell migration in Boyden chambers was carried out for 4 hr at 37 °C in humidified air with 5% CO2, as described. Briefly, cell suspension (1 × 10^5 viable cells/mL serum free medium) was seeded in each upper chamber. Lower chambers were filled with DMEM alone, DMEM containing RI peptides, 10 nM fMLF, or 10% FBS with/without RI peptides. The two compartments were separated by 8 μm pore size polycarbonate filters (Neuroprobe) coated with 2.5 µg/mL vitronectin (Corning). For the invasion assays, 8 μm pore size filters were coated with 50 μg/filter matrigel (BD Biosciences) as previously described[40] and cells (3 × 10^4 viable cells/well) were allowed to invade matrigel for 6 hr at 37 °C, 5% CO2. In all cases, at the end of the assay, cells on the lower filter surface were fixed with ethanol, stained with haematoxylin and 10 random fields/filter were counted at 200× magnification. Each experiment was performed three times in triplicate.

[9] = tested on: Sarc cells crossing HUVEC monolayer; assay: Trans-endothelial migration of Sarc cells, xCELLigence RTCA; format: cell-based, human; details: 10 nM, EBM-10% FBS, slopes in a 25–35 hr time frame
Experimental: Trans-endothelial migration assays were performed using the xCELLigence RTCA technology as described. Briefly, HUVECs (1 × 10^4 cells/well) suspended in growth medium, were seeded in E-plates and allowed to grow for ~25 hr, until they form a confluent monolayer, prior to seeding Sarc cells (1 × 10^4 cells/well) in growth medium plus/minus 10 nM RI-3. When HUVECs are challenged with crossing cells, there is a drop in electrical resistance that is monitored in real-time as cell index changes due to the rupture of the endothelial monolayer. The experiment was performed twice in quadruplicate.

Question: For “Ac-[dY][dR][Aib][dR]-NH2 (SMILES CC(=O)N[C@H](Cc1ccc(O)cc1)C(=O)N[C@H](CCCNC(=N)N)C(=O)NC(C)(C)C(=O)N[C@H](CCCNC(=N)N)C(N)=O) [RI-3]”, which “inhibitory activity retained after pre-incubation with human serum” value [1] is on record?
Answer: 81%

Question: And the “reduction in fMLF-dependent phosphorylation of Fgr(Y412)” value [2]?
Answer: 43%

Question: What about the “reduction in fMLF-dependent phosphorylation of Akt(S473)” value [3] of the same substance?
Answer: 22%

Question: What about the “reduction in fMLF-dependent phosphorylation of p38α(T180/Y182)” value [4] of the same substance?
Answer: 21%

Question: What about the “reduction in fMLF-dependent phosphorylation of ERK1/2(T202/Y204/T185/Y187)” value [5] of the same substance?
Answer: 25%

Question: And the “reduction in fMLF-dependent phosphorylation of FAK(Y397)” value [6]?
Answer: 30%

Question: What about the “reduction in fMLF-dependent phosphorylation of CREB(S133)” value [7] of the same substance?
Answer: 42%

Question: What about the “reduction of FBS-directed cell migration” value [8] of the same substance?
Answer: 57%

Question: And the “reduction of the capability of Sarc cells to disrupt endothelial monolayers” value [9]?
Answer: 24%
